Laboratory results from PubChem BioAssay (NCI).
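Cells were grown in 96-well plates and exposed to each compound for 48 hours at five concentrations; endpoints were interpolated linearly between bracketing concentrations, or set to the highest concentration if not reached. The concentration for full growth arrest is given as TGI.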

Assays:
Assay in all cases: NCI tumour cell line growth inhibition, 48 h
RPMI-8226 leukemia = system: RPMI-8226 leukemia
MDA-MB-435 = system: MDA-MB-435
MCF7 breast = system: MCF7 breast
PC-3 prostate = system: PC-3 prostate
SNB-78 CNS = system: SNB-78 CNS
M19-MEL melanoma = system: M19-MEL melanoma
HOP-18 NSCLC = system: HOP-18 NSCLC
DMS 273 small cell lung = system: DMS 273 small cell lung
DLD-1 colon = system: DLD-1 colon
KM20L2 colon = system: KM20L2 colon
LXFL 529 NSCLC = system: LXFL 529 NSCLC
DMS 114 small cell lung = system: DMS 114 small cell lung
XF 498 CNS = system: XF 498 CNS
RXF-631 renal = system: RXF-631 renal

Row | Structure (SMILES) | TGI (RPMI-8226 leukemia) [µM] | TGI (MDA-MB-435) [µM] | TGI (MCF7 breast) [µM] | TGI (PC-3 prostate) [µM] | TGI (SNB-78 CNS) [µM] | TGI (M19-MEL melanoma) [µM] | TGI (HOP-18 NSCLC) [µM] | TGI (DMS 273 small cell lung) [µM] | TGI (DLD-1 colon) [µM] | TGI (KM20L2 colon) [µM] | TGI (LXFL 529 NSCLC) [µM] | TGI (DMS 114 small cell lung) [µM] | TGI (XF 498 CNS) [µM] | TGI (RXF-631 renal) [µM]
1 | CC(=O)OCc1ccc2oc(=O)c(C(=O)Oc3cccc(Cl)c3)cc2c1 | > 100 | > 100 | 61.6 | 34.4 | – | – | – | – | – | – | – | – | – | –
2 | CO[C@H]1ON=C(c2c(C)cc(C)cc2C)[C@@H]1C1(c2ccccc2)ON=C(c2c(C)cc(C)cc2C)O1 (some centres undefined) | > 100 | – | – | – | > 100 | > 100 | > 100 | > 100 | > 100 | > 100 | > 100 | – | – | –
3 | NC(=O)c1ccc(NS(=O)(=O)c2ccc(N)cc2)nc1 | > 100 | > 100 | > 100 | > 100 | – | – | – | – | – | – | – | – | – | –
4 | CN1C(=O)CN2C(Cl)(Cl)C2(c2ccccc2F)c2cc([N+](=O)[O-])ccc21 (centres undefined) | > 100 | – | – | – | – | > 100 | – | > 100 | > 100 | > 100 | > 100 | > 100 | – | –
5 | CN(C)CCCNC(=O)c1cc(NC(=O)c2cc(NS(=O)(=O)c3ccc4c(c3)C(=O)c3ccccc3C4=O)cn2C)cn1C | > 100 | > 100 | > 100 | > 100 | – | – | – | – | – | – | – | – | – | –
6 | CCN1C(=S)n2cccc2C1CC(=O)c1ccc(Cl)cc1 (centres undefined) | > 100 | > 100 | > 100 | > 100 | – | – | – | – | – | – | – | – | – | –
7 | C1CCC(OCc2nnn3c2CCC3)OC1 (centres undefined) | – | – | – | – | > 100 | > 100 | – | – | > 100 | > 100 | > 100 | – | > 100 | –
8 | O=Nc1c(-c2c(O)[nH]c3ccccc23)[nH]c2ccccc12 | 9.95 | > 39.7 | > 23.9 | 28.1 | – | – | – | – | – | – | – | – | – | –
9 | COc1ccc(CC2c3cc(OC)c(OC)c(OC)c3CC[N+]2(C)C)cc1Oc1ccc(CC2c3cc4c(c(OC)c3CC[N+]2(C)C)OCO4)cc1 (centres undefined) | – | > 100 | > 100 | > 100 | – | – | – | – | – | – | – | – | – | –
10 | Nc1ccc(Oc2ccc(C3(c4ccc(Oc5ccc(N)cc5)cc4)C4CC5C6CC7CC5C3C(C7)C6C4)cc2)cc1 | > 100 | 82.9 | > 100 | > 100 | – | – | – | – | – | – | – | – | – | –
11 | C[C@H]1C(=O)O[C@@H]1[C@H]1COC(C)(C)O1 | > 100 | > 100 | > 100 | > 100 | – | – | – | – | – | – | – | – | – | –
12 | Cc1nc2c(O)cc3c4c(=O)n(C)c(=O)n(C)c4n(Cc4ccccc4)c3c2nc1C | 51.8 | 33.9 | 32.2 | 31.2 | – | – | – | – | – | – | – | – | – | –
13 | Nc1nc(Cl)cc(NCCCNc2cc(Cl)nc(N)n2)n1 | > 100 | – | – | – | – | > 100 | > 100 | > 100 | > 100 | > 100 | > 100 | > 100 | > 100 | > 100
14 | c1ccc(CSc2ccccc2CN2CCN(Cc3ccccc3SCc3ccccc3)CCN(Cc3ccccc3SCc3ccccc3)CC2)cc1 | 18 | 12 | 3.32 | 2.52 | – | – | – | – | – | – | – | – | – | –
15 | CCCCC(C(=O)N/N=C/c1ccc([N+](=O)[O-])o1)C(=O)N/N=C/c1ccc([N+](=O)[O-])o1 | 3.18 | 25.2 | 22.4 | 14.4 | – | – | – | – | – | – | – | – | – | –
